Patent EP0652290A1, “Method for regulation of NF-kB” (YISSUM RESEARCH DEVELOPMENT COMPANY OF THE HEBREW …, priority 1993, dated 1995)
Where a SMILES comes first, the peptide text is derived from it. The star is where a group is joined. Cbz = O=C(OCc1ccccc1)*; CH2Cl = ClC*

How the values were obtained:
70Z/3 cells = assay: Inhibition of protein synthesis in 70Z/3 cells; assay type: cell-based; details: read-out: protein synthesis is inhibited
Experimental: 70Z/3 cells were treated with 25 µg/ml cycloheximide (Sigma). The protein synthesis inhibitor cycloheximide (CHX) activates NF-κB in 70Z/3 cells. At 10 µg/ml, protein synthesis is inhibited to 90% in 70Z/3 cells. Cell culture, extract preparation, EMSA, SDS-PAGE and Western blotting were as described above in Example 1. Densitometric scanning was done with a Howtek Scanmaster 3 and data analyzed by the software Quantity One Version 2.2.

NF-κB [1] = assay: NF-κB activation by EMSA, 70Z/3 cells stimulated with PMA, IL-1β or LPS; assay type: cell-based; details: for induction of NF-κB activity in response to PMA: 25 µM; for IC90: 30 min pretreatment, stimulated by PMA, EMSA, read-out: IC90, 90% inhibitory concentration, activation of NF-κB, 70Z/3
IκBα [2] = assay: IκBα level and stability by Western blot in 70Z/3 cells; assay type: cell-based
NF-κB [3] = assay: NF-κB activation by EMSA, Jurkat cells stimulated with TNF-α; assay type: cell-based; details: for induction of NF-κB DNA-binding activity in response to PMA and TNF-α: Jurkat (TNF-α) and 70Z/3 (PMA) cell cultures, even at high concentrations; for IC90: Homo sapiens, Jurkat cells, 30 min pretreatment, stimulated by TNF-α, EMSA, read-out: IC90, 90% inhibitory concentration, activation of NF-κB, Jurkat
Experimental: The functional significance of the inducible decay of IκBα for activation of NF-κB was tested by exposure of cell cultures to various protease inhibitors. Six distinct serine protease inhibitors with chymotrypsin-like specificity efficiently prevent the induction of NF-κB DNA-binding activity in response to PMA and TNF-α (Table 1). Constitutive DNA-binding activities, including Oct-1, were not affected and no significant cell death was observed by a dye-exclusion assay and phase-contrast microscopy at inhibitor concentrations preventing […] activation. Leupeptin, antipain and the trypsin inhibitor tosyl-Lys-methylester were not effective, even at high concentrations.

IκBα [4] = assay: IκBα phosphorylation and degradation by Western blot, Jurkat cells stimulated with PMA and Ca⁺⁺ ionophore; assay type: cell-based; details: 25 µM TPCK or 400 ng/ml CsA 30 min, 100 µM PDTC 1 hour before PMA + Ca⁺⁺ ionophore
Experimental: Subcellular protein extracts were prepared essentially according to Beg, A.A. et al., supra. Following 20 minutes stimulation of Jurkat cells, cytosolic extracts (50 µg/point) were analyzed by Western blot, and nuclear extracts (5 µg/point) by EMSA, as described (Henkel, T., et al., Nature, 365:182-185, 1993).
Rabbit anti-IκBα was prepared against the GST-IκBα fusion protein by standard methods. The specifity of the antibodies was confirmed in competition assays using recombinant IκBα protein.
On the basis of the results in Example 3, phosphorylation of IκBα, in parallel to NF-κB activation, is induced according to the physiological requirements for T cell activation. Cell stimulation and extract preparation was as described above. […] Duration of Jurkat cell stimulation with PMA (10 ng/ml) and Ca⁺⁺ ionophore (1µM) was determined by Western blot analysis. […]
N-acetyl-Leu-Leu-Norleucinal (AcLLnL) is a reversible non-alkylating proteosome inhibitor not likely to disturb post-translation modification events. […] Anti-Rel A serum was a rabbit polyclonal antiserum prepared against the C-terminus portion of Rel A. In FIGURE 6a, cells were pretreated for 4 hours with 50 µg/ml AcLLnL, stimulated with PMA (10 ng/ml) and Ca⁺⁺ ionophore (1 µM) for the time intervals indicated and analyzed by Western blot. […]

NF-κB [5] = assay: NF-κB activation by TNF-α in various other cell lines; assay type: cell-based; details: various other cells lines
NF-κB [6] = assay: HIV-LTR-Luc reporter activity in Jurkat cells; assay type: cell-based; details: stimulated 8 hours, PMA 10 ng/ml
Experimental: Jurkat cells were stimulated with the following reagents: (P), PMA (phorbol-12 myrislated 13-acetate), 10 ng/ml; (I), A23187 Ca⁺⁺ ionophore, 1µM; (3), anti-CD3 (OKT3), 5µg/ml; (28) anti-CD28 (monoclonal antibody 9.3), 3 µg/ml; (P/I), PMA + Ca⁺⁺ ionophore in IκBα transfected Jurkat cells; (NS) non-stimulated (0.1%, DMSO only).
The steps involved in the activation of NF-κB, include IκBα elimination through the appearance of the nuclear DNA binding activity, and the transcriptional activity. NF-κB activation was measured through the reporter activity of the HIV-LTR promoter, which is largely controlled by NF-κB in conjunction with the HIV Tat protein (Nabel, G., et al., Nature, 326:711-713, 1987). Jurkat cells were stimulated with the following reagents: (P), PMA (phorbol-12 myrislated 13-acetate), 10 ng/ml; (I), A23187 Ca⁺⁺ ionophore, 1µM; (3), anti-CD3 (OKT3), 5µg/ml; (28) anti-CD28 (monoclonal antibody 9.3), 3 µg/ml; (P/I), PMA + Ca⁺⁺ ionophore in IκBα transfected Jurkat cells; (NS) non-stimulated (0.1%, DMSO only). Jurkat cells were transfected by electroporation (Su, B., et al., supra) with 1 µg HIV-LTR-LUC (Israel, S., et al., Gene, 104:139-145, 1991) and 4 µg PBC-TAT. […] Following 30 hours transfection, the cells were stimulated for 8 hours and luciferase activity was determined using the Promega luciferase assay system.

NF-κB [7] = assay: Dose response of NF-κB DNA binding (EMSA) in Hela cells stimulated with TNFα; assay type: cell-based
Experimental: Hela cells were pretreated for 5 hours with the indicated concentration of peptide aldehyde inhibitor or left untreated and then stimulated with TNFα (15ng/ml) for 20 minutes. The cells were then harvested for whole cell extract preparation. Extracts were analyzed for NF-κB DNA binding activity by electrophoretic mobility shift assay (EMSA) and relative IκBα protein levels were measured by Western blot analysis as shown in FIGURE 9.
IC₅₀ for ZLLF was 3.4 µM and 12.1 µM for AcLLnL.

IκBα [8] = assay: IκB degradation by Western blot in HeLa S3 or Hep G2 cells after TNFα, IL-1 or PMA; assay type: cell-based, Human; details: HeLa S3 or Hep G2, 4 hours pretreatment, 20 minutes
Experimental: Human HeLa S3 or Hep G2 cells were pretreated for 4 hours with the indicated peptide aldehyde prior to simulation with either TNFα (20ng/ml), IL-1(20 ng/ml) or PMA (100 µg/ml). The cells were harvested 20 minutes after induction and the extent of IκB degradation was examined via Western blot analysis using IκB specific antisera. FIGURE 7 summarizes the ability of related peptide aldehydes to block IκB degradation induced by a variety of agents which activate NF-κB. (+++) indicates greater than 85% inhibition, (++) indicates greater than 60% inhibition and (-) indicates no inhibition of IκB degradation was observed.

C[C@@H]1C[C@@H]([C@H](O)CC2CC(=O)NC(=O)C2)C(=O)[C@@H](C)C1 [CHX, cycloheximide]
inhibition at 10 µg/mL (70Z/3 cells): 90%
DNA binding of NF-κB (NF-κB [1]; 1 hour treatment of 70Z/3 cells with CHX, no PMA): induced only weakly
half-life of IκBα (IκBα [2]; CHX-treated 70Z/3 cells, 25 µg/ml, no PMA): approximately 138 minutes

COC(=O)C(CCCCN)NS(=O)(=O)c1ccc(C)cc1.Cl (stereo not drawn) [tosyl-Lys-methylester]
induction of NF-κB DNA-binding activity in response to PMA and TNF-α (NF-κB [3]): not effective

CC(=O)NC(Cc1ccccc1)C(=O)Oc1ccc2ccccc2c1 (racemic) [N-Acetyl-DL-Phe-β-Naphthylester (APNE), N-Acetyl-DL-Phe-β-Naphthylester]
IC90 (NF-κB [3]): 200 µM

CCOC(=O)[C@H](Cc1ccc(O)cc1)NC(=O)c1ccccc1 [N-Benzoyl-L-Tyr-ethylester (BTEE), N-Benzoyl-L-Tyr-ethylester]
IC90 (NF-κB [3]): 1000 µM

O=c1oc(Cl)c(Cl)c2ccccc12 [3,4-Dichloroisocoumarin]
IC90 (NF-κB [3]): 20 µM

Cc1ccc(S(=O)(=O)NC(CCCCN)C(=O)CCl)cc1 (stereo not drawn) [TLCK, Tosyl-Lys-chloromethylketone]
induction of NF-κB activity in response to PMA (NF-κB [1]; 70Z/3 cells): could not prevent
IC90 (NF-κB [1]; 70Z/3 cells): 100 µM
IC90 (NF-κB [3]): 100 µM

Cc1ccc(S(=O)(=O)N[C@@H](Cc2ccccc2)C(=O)CCl)cc1 [TPCK, Tosyl-Phe-chloromethylketone]
induction of NF-κB activity in response to PMA (NF-κB [1]; 70Z/3 cells): fully inhibited
IC90 (NF-κB [1]; 70Z/3 cells): 20 µM
NF-κB activity when added after stimulation (NF-κB [1]; 70Z/3 cells, added after stimulation with PMA, IL-1 or LPS): did not strongly interfere
activation of NF-κB by IL-1β and LPS (NF-κB [1]; 70Z/3 cells, treated 10 minutes before stimulation): prevented
inducible degradation of IκBα (IκBα [4]): blocked both the inducible modification and degradation of IκBα completely
inducible modification (phosphorylation) of IκBα (IκBα [4]): blocked both the inducible modification and degradation of IκBα completely
activation of NF-κB by TNF-α (NF-κB [5]): prevented
IC90 (NF-κB [3]): 20 µM
decay of IκB-α in response to PMA (IκBα [2]; 25 µM, 1 hour pretreatment, 70Z/3 cells): fully inhibited

CCCCCCCCCCCCCC(=O)O[C@@H]1[C@@H](C)[C@@]2(O)[C@@H](C=C(CO)C[C@]3(O)C(=O)C(C)=C[C@@H]23)[C@@H]2C(C)(C)[C@]12OC(C)=O [PMA, phorbol 12-myristate 13-acetate]
enhancement of reporter activity (HIV-LTR-Luc) over basal (NF-κB [6]): two-fold
time after stimulation until most of the IκBα had decayed (IκBα [2]; 70Z/3 cells): ≤ 5 min
half-life of IκBα (IκBα [2]; protein synthesis-arrested (CHX) 70Z/3 cells stimulated with PMA, phase of fastest decay): 1.5 min

benzyloxycarbonyl-Leu-Leu-Phenylalaninal [ZLLF]
TNFα induced NF-κB activity (NF-κB [7]; 1µM to 200 µM, 5 hours pretreatment, TNFα 15ng/ml 20 minutes): inhibited TNFα induced NF-κB activity in a dose-dependent manner
IC50 (NF-κB [7]; densitometric scanning of the EMSA and Western blots, TNFα, read-out: IC₅₀): 3.4 µM
rank as inhibitor of proteolysis of IκBα (IκBα [8]): the most potent inhibitor

CC(C)C[C@H](NC(=O)OCc1ccccc1)C(=O)N[C@@H](Cc1ccc(O)cc1)C(=O)CCl [Benzyloxycarbonyl-Leu-Tyr-chloromethylketone] (Cbz-Leu-Tyr-CH2Cl)
IC90 (NF-κB [1]; 70Z/3 cells): 10 µM

CC(=O)N[C@@H](CC(C)C)C(=O)N[C@@H](CC(C)C)C(=O)N[C@H](C=O)CCCNC(=N)N [Leupeptin]
induction of NF-κB DNA-binding activity in response to PMA and TNF-α (NF-κB [3]): not effective
